Measured values taken from paper PMC9356039, “Multifunctional synthetic nano-chaperone for peptide folding and intracellular delivery” (Nature Communications, 2022).

Assay: CD spectroscopy, α-helicity by CONTIN-LL
Assay type: physicochemical
Conditions: for helix1 / helix2 / helix % / strand1 / strand2 / total helix / turns / unordered: CONTINLL from CD spectra
Experimental: CD spectra were measured using a J-810 spectropolarimeter (JASCO, Japan). Spectra were recorded from 250 nm to 190 nm wavelength using a 1 cm path-length cuvette. Scans were repeated five times and averaged. Molar ellipticity was calculated per amino acid residue. The concentrations of SNCP and p53pep were 0.2 mg/mL and 20 μM, respectively. All sample suspensions were incubated at least for 2 days at room temperature before CD measurement. To perform temperature-dependent CD experiments, the spectra were recorded at 10 °C interval over a temperature range of 25 to 75 °C, with 30 min incubation time to reach equilibrium at each temperature. The α-helicity of peptides was calculated by using the CONTIN-LL algorithms provided from the DICHROWEB server.

helix1 (25 ℃): 0.186
helix2 (25 ℃): 0.16
helix % (25 ℃): 34.6%
strand1 (25 ℃): 0.062
strand2 (25 ℃): 0.054
total helix (25 ℃): 0.346
turns (25 ℃): 0.123
unordered (25 ℃): 0.415
helix1 (35 ℃): 0.176
helix2 (35 ℃): 0.154
helix % (35 ℃): 33%
strand1 (35 ℃): 0.059
strand2 (35 ℃): 0.054
total helix (35 ℃): 0.33
turns (35 ℃): 0.092
unordered (35 ℃): 0.464
helix1 (45 ℃): 0.187
helix2 (45 ℃): 0.158
helix % (45 ℃): 34.5%
strand1 (45 ℃): 0.052
strand2 (45 ℃): 0.05
total helix (45 ℃): 0.345
turns (45 ℃): 0.11
unordered (45 ℃): 0.444
helix1 (55 ℃): 0.186
helix2 (55 ℃): 0.147
helix % (55 ℃): 33.3%
strand1 (55 ℃): 0.057
strand2 (55 ℃): 0.049
total helix (55 ℃): 0.333
turns (55 ℃): 0.117
unordered (55 ℃): 0.445
helix1 (65 ℃): 0.088
helix2 (65 ℃): 0.108
helix % (65 ℃): 19.6%
strand1 (65 ℃): 0.14
strand2 (65 ℃): 0.096
total helix (65 ℃): 0.196
turns (65 ℃): 0.134
unordered (65 ℃): 0.433
helix1 (75 ℃): 0.041
helix2 (75 ℃): 0.06
helix % (75 ℃): 10.1%
strand1 (75 ℃): 0.132
strand2 (75 ℃): 0.079
total helix (75 ℃): 0.101
turns (75 ℃): 0.348
unordered (75 ℃): 0.341
α-helicity (extracted peptide after re-encapsulation in SNCP8): 73.4%
α-helicity (peptide extracted from SNCP8@st-p53pep): 34.6%
SMILES: CC(C)C[C@@H]1NC(=O)[C@H](CC(C)C)NC(=O)[C@H](CCCNC(=N)N)NC(=O)[C@H](Cc2c[nH]c3ccccc23)NC(=O)[C@H](CC(C)C)NC(=O)[C@H](CC(N)=O)NC(=O)[C@H](NC(=O)[C@H](Cc2ccccc2)NC(=O)[C@@H](NC(=O)[C@H](CCC(N)=O)NC(=O)[C@H](CCC(N)=O)NC(=O)[C@H](CO)NC(=O)[C@H](CCC(N)=O)NC(=O)CNC(=O)CNC(=O)c2ccc3c(c2)C(=O)OC32c3ccc(O)cc3Oc3cc(O)ccc32)[C@@H](C)O)CCCCNC(=O)CCc2cn(nn2)CCC[C@@H](C(=O)N[C@@H](CCC(N)=O)C(=O)N[C@@H](CC(N)=O)C(N)=O)NC1=O [st-p53pep]
